Test results published in PubChem BioAssay (NCI).
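Growth conditions: 96-well plates. Treatment: test compound, 48 hours, 5 concentrations. Analysis: linear interpolation between bracketing concentrations; unreached endpoints set to highest concentration. The concentration for full growth arrest is given as TGI.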

Test system: KM12 colon
Assay: NCI anticancer screen, dose series, 48 h

Row | Structure (SMILES) | TGI [µM]
1 | COC(=O)c1c(O)ccc2c1c1c(n2Cc2cc(OC)cc(OC)c2)C(=O)c2ccccc2C1 | > 100
2 | COC[C@@H](N=CC(C)(C)C)C(C)C | > 100
3 | NC(N)=NCCN1CC2CCC(CC2)C1 | > 100
4 | O=C1COc2cccnc2N1CCCCO | > 100
5 | O=[N+]([O-])c1cccc(C2=NN(c3ccccc3)C[N+](c3ccc(Br)cc3)=N2)c1 | > 100
6 | O=C(O)CCCc1nc2c(n1Cc1ccccc1)C(=O)c1ccccc1C2=O | > 100
7 | CCOC(=O)NC(Nc1ccc(C)cc1)(C(F)(F)F)C(F)(F)F | > 100
8 | [N-]=[N+]=Nc1c([N+](=O)[O-])c(=O)n(-c2ccccc2)c2ccccc12 | > 100
9 | O=[N+]([O-])c1ccc2[nH]c(=S)[nH]c(=S)c2c1 | > 100

Test system: OVCAR-3 ovarian
Assay: NCI anticancer screen, dose series, 48 h

Row | Structure (SMILES) | TGI [µM]
10 | O=[N+]([O-])C[C@@]12O[C@]3(O)C4C5CC(C6C5C3C61)C42 (stereo partly drawn) | > 100
11 | O=C1C2SC34c5c2c2ccccc2n5CCC3CCCN14 (stereo not drawn) | > 100
12 | CCCC(=O)NC(NC1CCCCC1)(C(=O)OCC)C(F)(F)F (stereo not drawn) | > 100
13 | O=C(/C=C/c1ccccc1)Oc1cccc(O)c1 | > 100
14 | Cc1c2n(c(=O)[nH]c1=O)C1OC(CO)C(O2)C1O (stereo not drawn) | > 100
15 | COc1cccc(C(=O)Oc2ccc(OS(=O)(=O)c3ccc(C)cc3)cc2)c1C#N | > 100
16 | CC1(C)/C(=N\NC(N)=O)C2CCC1C2 (stereo not drawn) | > 100
17 | Cc1ccc(C2SCC(=O)N2c2ccc(-n3c(-c4ccccc4)nc4ccccc4c3=O)cc2)cc1 (stereo not drawn) | 51.9
18 | CC1(C)[C@@H](Cn2ccc(=O)[nH]c2=O)CC[C@@]1(C)CO | > 100
19 | CC(C)C1=CC23CCC4C(C)(C(=O)O)CCCC4(C)C2CC1C1C(=O)N(c2ccc(Cc4ccc(N5C(=O)C6C7CC8C9(C)CCCC(C)(C(=O)O)C9CCC8(C=C7C(C)C)C6C5=O)cc4)cc2)C(=O)C13 (stereo not drawn) | 22.6
20 | Cn1c(=O)c2c(ncn2CCNC(CO)C(O)c2ccc([N+](=O)[O-])cc2)n(C)c1=O (stereo not drawn) | > 100
21 | CCCNC(=O)NNC(=O)c1c[nH]c2nc(C)ccc2c1=O | > 100
22 | C=CCCON(C(=O)OC(C)(C)C)C(C)(C)C | > 100
23 | CCOC(=O)Nc1[nH]cc(-c2ccccc2)c1C#N | > 100
24 | NC(N)=NS(=O)(=O)c1ccc(NNc2c3ccccc3nc3c(C(=O)Nc4ccc(S(=O)(=O)Nc5ncccn5)cc4)cccc23)cc1 | > 100
25 | O=c1oc2ccccc2cc1-c1cc2ccccn2c1 | > 100
26 | COC(=O)c1c(O)ccc2c1c1c(n2Cc2cc(OC)cc(OC)c2)C(=O)c2ccccc2C1 | > 100
27 | COC[C@@H](N=CC(C)(C)C)C(C)C | > 100
28 | NC(N)=NCCN1CC2CCC(CC2)C1 | > 100
29 | O=C1COc2cccnc2N1CCCCO | > 100
30 | O=C(O)CCCc1nc2c(n1Cc1ccccc1)C(=O)c1ccccc1C2=O | 74.7
31 | CCOC(=O)NC(Nc1ccc(C)cc1)(C(F)(F)F)C(F)(F)F | > 100
32 | [N-]=[N+]=Nc1c([N+](=O)[O-])c(=O)n(-c2ccccc2)c2ccccc12 | 22.7
33 | O=[N+]([O-])c1ccc2[nH]c(=S)[nH]c(=S)c2c1 | > 100

Test system: HOP-62 NSCLC
Assay: NCI anticancer screen, dose series, 48 h

Row | Structure (SMILES) | TGI [µM]
34 | O=[N+]([O-])C[C@@]12O[C@]3(O)C4C5CC(C6C5C3C61)C42 (stereo partly drawn) | > 100
35 | O=C1C2SC34c5c2c2ccccc2n5CCC3CCCN14 (stereo not drawn) | > 100
36 | CCCC(=O)NC(NC1CCCCC1)(C(=O)OCC)C(F)(F)F (stereo not drawn) | > 100
37 | O=C(/C=C/c1ccccc1)Oc1cccc(O)c1 | > 100
38 | Cc1c2n(c(=O)[nH]c1=O)C1OC(CO)C(O2)C1O (stereo not drawn) | > 100
39 | COc1cccc(C(=O)Oc2ccc(OS(=O)(=O)c3ccc(C)cc3)cc2)c1C#N | > 100
40 | CC1(C)/C(=N\NC(N)=O)C2CCC1C2 (stereo not drawn) | > 100
41 | Cc1ccc(C2SCC(=O)N2c2ccc(-n3c(-c4ccccc4)nc4ccccc4c3=O)cc2)cc1 (stereo not drawn) | 53.9
42 | CC1(C)[C@@H](Cn2ccc(=O)[nH]c2=O)CC[C@@]1(C)CO | > 100
43 | CC(C)C1=CC23CCC4C(C)(C(=O)O)CCCC4(C)C2CC1C1C(=O)N(c2ccc(Cc4ccc(N5C(=O)C6C7CC8C9(C)CCCC(C)(C(=O)O)C9CCC8(C=C7C(C)C)C6C5=O)cc4)cc2)C(=O)C13 (stereo not drawn) | 25.2
44 | Cn1c(=O)c2c(ncn2CCNC(CO)C(O)c2ccc([N+](=O)[O-])cc2)n(C)c1=O (stereo not drawn) | > 100
45 | CCCNC(=O)NNC(=O)c1c[nH]c2nc(C)ccc2c1=O | > 100
46 | C=CCCON(C(=O)OC(C)(C)C)C(C)(C)C | > 100
47 | CCOC(=O)Nc1[nH]cc(-c2ccccc2)c1C#N | > 100
48 | [N-]=[N+]=NC1(Cc2ccccc2)C(=O)c2cccc3c2N(CCC3)C1=O (stereo not drawn) | > 100
49 | NC(N)=NS(=O)(=O)c1ccc(NNc2c3ccccc3nc3c(C(=O)Nc4ccc(S(=O)(=O)Nc5ncccn5)cc4)cccc23)cc1 | > 100
50 | O=c1oc2ccccc2cc1-c1cc2ccccn2c1 | > 100
51 | COC(=O)c1c(O)ccc2c1c1c(n2Cc2cc(OC)cc(OC)c2)C(=O)c2ccccc2C1 | > 100
52 | COC[C@@H](N=CC(C)(C)C)C(C)C | > 100
53 | NC(N)=NCCN1CC2CCC(CC2)C1 | > 100
54 | O=C1COc2cccnc2N1CCCCO | > 100
55 | O=[N+]([O-])c1cccc(C2=NN(c3ccccc3)C[N+](c3ccc(Br)cc3)=N2)c1 | > 100
56 | CCOC(=O)NC(Nc1ccc(C)cc1)(C(F)(F)F)C(F)(F)F | > 100
57 | [N-]=[N+]=Nc1c([N+](=O)[O-])c(=O)n(-c2ccccc2)c2ccccc12 | > 100
58 | O=[N+]([O-])c1ccc2[nH]c(=S)[nH]c(=S)c2c1 | > 100
